From ChEMBL document CHEMBL5154787 (J Med Chem, 2022)
pIC50: −log10 of the molar value. In brackets after ≈: the same amount, converted by molar mass. Blank lines part the entries; values can stand above or below the molecule they belong to.

Experiments:
[1] = target: Death-associated protein kinase 1 (Homo sapiens, UniProt P53355); experiment: Inhibition of DAPK1 (unknown origin)
[2] = Solubility of compound in FaSSIF incubated for 24 hrs; format: physicochemical
[3] = Genotoxicity in chinese hamster CHO cells in presence of metabolic activation system at 169 uM by IVMN assay; format: toxicity, cell-based, Cricetulus griseus
[4] = Genotoxicity in chinese hamster CHO cells without metabolic activation system at 59 uM by IVMN assay; format: toxicity, cell-based, Cricetulus griseus
[5] = Solubility of compound at pH 7.4 measured after 24 hrs; format: physicochemical; settings: buffer
[6] = Solubility of compound at pH 6.5 measured after 24 hrs; format: physicochemical; settings: buffer
[7] = Chemical stability of the compound assessed as remaining product at pH 1 measured after 22 hrs; format: physicochemical; settings: buffer, read-out: Stability
Rattus norvegicus [8] = experiment: Analgesic activity in STZ induced in diabetic peripheral neuropathic mechanical allodynia in Sprague-Dawley rat assessed as reduction in pain response at 10 mg/kg, po measured up to 24 hrs by Hargreaves test relative to control; format: functional; design: scale not given: the % may be the effect or the level left
[9] = target: 5-hydroxytryptamine receptor 2B (Homo sapiens, UniProt P41595); experiment: Inhibition of 5HT2B receptor (unknown origin); format: toxicity
5-hydroxytryptamine receptor 2B, sequence (P41595 whole entry): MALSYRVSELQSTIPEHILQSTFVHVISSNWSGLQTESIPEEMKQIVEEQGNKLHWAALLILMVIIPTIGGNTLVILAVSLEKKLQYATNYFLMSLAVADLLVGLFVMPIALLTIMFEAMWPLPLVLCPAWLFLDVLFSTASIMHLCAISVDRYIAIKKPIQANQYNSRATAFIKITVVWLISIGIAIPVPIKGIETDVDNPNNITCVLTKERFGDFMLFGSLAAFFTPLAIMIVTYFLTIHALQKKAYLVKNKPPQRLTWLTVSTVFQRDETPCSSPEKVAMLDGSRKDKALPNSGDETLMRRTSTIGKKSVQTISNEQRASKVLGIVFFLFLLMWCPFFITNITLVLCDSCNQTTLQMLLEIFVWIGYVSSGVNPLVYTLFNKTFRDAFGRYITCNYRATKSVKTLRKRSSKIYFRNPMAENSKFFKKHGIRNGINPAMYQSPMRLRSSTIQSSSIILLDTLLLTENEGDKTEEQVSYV

[10] = Solubility of compound at pH 2 measured after 24 hrs; format: physicochemical; settings: buffer
[11] = Solubility of compound in FessiF incubated for 24 hrs; format: physicochemical
[12] = Solubility of compound at pH 4 measured after 24 hrs; format: physicochemical; settings: buffer
[13] = Solubility of compound at pH 1 measured after 24 hrs; format: physicochemical; settings: buffer
Rattus norvegicus [14] = experiment: Analgesic activity in STZ induced in diabetic peripheral neuropathic mechanical allodynia in Sprague-Dawley rat assessed as reversal in mechanical allodynia by measuring inhibition of pain response at 1 mg/kg, po measured up to 24 hrs by Hargreaves test relative to control; format: functional; design: scale not given: the % may be the effect or the level left
[15] = Chemical stability of the compound assessed as remaining product at pH 7.4 measured after 22 hrs; format: physicochemical; settings: buffer, read-out: Stability
[16] = Solubility of compound at pH 5 measured after 24 hrs; format: physicochemical; settings: buffer
[17] = target: Acetylcholine receptor subunit alpha (Homo sapiens, UniProt P02708); experiment: Inhibition of nicotinic acetylcholine receptor alpha 1 (unknown origin); format: toxicity
Acetylcholine receptor subunit alpha, sequence (P02708 whole entry): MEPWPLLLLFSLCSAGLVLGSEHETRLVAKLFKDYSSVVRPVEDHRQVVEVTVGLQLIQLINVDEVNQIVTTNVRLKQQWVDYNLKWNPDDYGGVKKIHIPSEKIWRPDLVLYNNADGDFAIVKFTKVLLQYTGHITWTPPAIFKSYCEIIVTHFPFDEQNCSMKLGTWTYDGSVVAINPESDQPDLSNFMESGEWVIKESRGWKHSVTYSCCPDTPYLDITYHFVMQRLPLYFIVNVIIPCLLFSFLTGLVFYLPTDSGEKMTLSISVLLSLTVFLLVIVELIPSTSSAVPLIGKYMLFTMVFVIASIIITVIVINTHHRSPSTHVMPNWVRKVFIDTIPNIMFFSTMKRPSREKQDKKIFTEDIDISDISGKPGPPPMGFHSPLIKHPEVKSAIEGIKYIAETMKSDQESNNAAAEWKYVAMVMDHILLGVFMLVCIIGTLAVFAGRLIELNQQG

[18] = target: Rho-associated protein kinase 2 (Homo sapiens, UniProt O75116); experiment: Inhibition of ROCK2 (unknown origin)
[19] = target: AP2-associated protein kinase 1 (Homo sapiens, UniProt Q2M2I8); experiment: Inhibition of bacterially expressed GST-Xa-tagged human AAK1 using 5-FAM-labelled Aha-KEEQSQITSQVTGQIGWR-NH2 peptide as substrate incubated for 3 hrs in presence of ATP by electrophoretic analysis
AP2-associated protein kinase 1, sequence (Q2M2I8 whole entry): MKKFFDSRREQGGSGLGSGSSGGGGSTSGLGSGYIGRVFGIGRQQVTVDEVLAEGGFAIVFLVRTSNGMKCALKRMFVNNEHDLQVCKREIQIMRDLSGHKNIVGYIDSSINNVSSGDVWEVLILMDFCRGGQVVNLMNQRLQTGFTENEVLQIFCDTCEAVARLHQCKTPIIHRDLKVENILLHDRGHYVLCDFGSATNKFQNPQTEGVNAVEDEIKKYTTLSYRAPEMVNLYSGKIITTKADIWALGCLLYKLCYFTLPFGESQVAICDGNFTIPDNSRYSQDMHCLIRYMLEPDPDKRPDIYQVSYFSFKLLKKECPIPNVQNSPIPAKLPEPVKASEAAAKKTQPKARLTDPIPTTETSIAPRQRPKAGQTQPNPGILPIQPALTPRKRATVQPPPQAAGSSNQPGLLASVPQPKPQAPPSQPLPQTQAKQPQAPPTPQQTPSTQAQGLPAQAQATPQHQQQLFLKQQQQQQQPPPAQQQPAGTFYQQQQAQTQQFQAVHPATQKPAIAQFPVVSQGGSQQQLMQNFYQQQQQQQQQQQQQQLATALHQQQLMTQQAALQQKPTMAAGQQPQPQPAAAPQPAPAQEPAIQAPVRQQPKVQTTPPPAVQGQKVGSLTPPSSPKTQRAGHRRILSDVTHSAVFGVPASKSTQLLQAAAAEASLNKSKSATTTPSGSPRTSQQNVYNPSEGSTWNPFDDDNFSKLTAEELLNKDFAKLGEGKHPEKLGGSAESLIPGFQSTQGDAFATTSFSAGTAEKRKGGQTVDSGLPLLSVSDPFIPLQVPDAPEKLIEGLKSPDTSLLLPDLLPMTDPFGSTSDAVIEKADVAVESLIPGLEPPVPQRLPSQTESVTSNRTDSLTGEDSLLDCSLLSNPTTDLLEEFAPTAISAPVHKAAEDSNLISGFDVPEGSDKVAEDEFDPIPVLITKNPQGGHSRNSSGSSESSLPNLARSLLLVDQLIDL

[20] = target: T1, Homeodomain-interacting protein kinase 4 (Homo sapiens, UniProt Q8NE63); experiment: Inhibition of HIPK4 (unknown origin)
T1 sequence (Q8NE63 whole entry): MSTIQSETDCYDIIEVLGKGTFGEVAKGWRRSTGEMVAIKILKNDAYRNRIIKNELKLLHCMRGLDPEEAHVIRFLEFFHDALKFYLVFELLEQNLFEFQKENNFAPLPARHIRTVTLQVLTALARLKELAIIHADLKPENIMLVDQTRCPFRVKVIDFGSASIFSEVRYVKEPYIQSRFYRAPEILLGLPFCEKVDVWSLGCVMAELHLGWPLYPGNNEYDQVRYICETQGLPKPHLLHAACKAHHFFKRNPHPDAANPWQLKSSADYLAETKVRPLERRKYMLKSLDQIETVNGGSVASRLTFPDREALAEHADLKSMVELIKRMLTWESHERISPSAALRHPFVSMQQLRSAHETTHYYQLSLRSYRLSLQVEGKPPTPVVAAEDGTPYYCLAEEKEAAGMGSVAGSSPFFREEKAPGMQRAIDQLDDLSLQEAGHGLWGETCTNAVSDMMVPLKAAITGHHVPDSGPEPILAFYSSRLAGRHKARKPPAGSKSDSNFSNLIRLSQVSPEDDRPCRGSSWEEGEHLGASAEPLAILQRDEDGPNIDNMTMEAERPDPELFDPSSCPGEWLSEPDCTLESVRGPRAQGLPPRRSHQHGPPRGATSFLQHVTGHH

[21] = target: Solute carrier organic anion transporter family member 1B1 (Homo sapiens, UniProt Q9Y6L6); experiment: Inhibition of OATP1B1 (unknown origin)
Bile salt export pump = Bile salt export pump (Homo sapiens, UniProt O95342); experiment: Inhibition of BSEP (unknown origin)
[22] = Tmax in rat at 3 mg/kg, po; format: ADME, organism-based; settings: in vivo
[23] = Ratio of drug concentration in spinal cord to plasma in rat at 3 mg/kg, po measured at 4 hrs post dose; format: ADME, organism-based
[24] = Drug concentration in CCI induced thermal hyperalgesia in Sprague-Dawley rat spinal cord at 3 mg/kg, po measured after 5.5 hrs; format: ADME, organism-based; settings: read-out: Ct
[25] = target: Hepatic sodium/bile acid cotransporter (Homo sapiens, UniProt Q14973); experiment: Inhibition of NTCP (unknown origin)
Hepatic sodium/bile acid cotransporter, sequence (Q14973 whole entry): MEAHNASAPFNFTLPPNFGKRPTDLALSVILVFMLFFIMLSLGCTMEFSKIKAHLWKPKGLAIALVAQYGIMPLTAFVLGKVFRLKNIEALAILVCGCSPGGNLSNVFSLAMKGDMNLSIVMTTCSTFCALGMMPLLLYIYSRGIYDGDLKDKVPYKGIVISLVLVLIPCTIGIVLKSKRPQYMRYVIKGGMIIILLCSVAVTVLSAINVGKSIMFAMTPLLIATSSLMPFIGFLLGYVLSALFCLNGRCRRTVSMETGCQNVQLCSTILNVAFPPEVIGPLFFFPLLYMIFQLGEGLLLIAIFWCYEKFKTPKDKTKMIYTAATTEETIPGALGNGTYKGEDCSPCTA

[26] = Plasma concentration in CCI induced thermal hyperalgesia in Sprague-Dawley rat at 3 mg/kg, po measured at 5.5 hrs post dose; format: ADME, organism-based
[27] = Protein binding in cynomolgus monkey plasma assessed as unbound fraction measured after 3 hrs by LC/MS/MS analysis; format: ADME, cell-free, Macaca fascicularis
[28] = Drug concentration in rat spinal cord at 3 mg/kg, po measured after 4 hrs; format: ADME, organism-based; settings: read-out: Ct
[29] = Protein binding in mouse brain assessed as unbound fraction at 1 uM measured after 4 hrs by LC/MS/MS analysis; format: ADME, tissue-based
[30] = Plasma concentration in rat at 3 mg/kg, po measured after 4 hrs; format: ADME, organism-based
Rattus norvegicus [31] = experiment: Analgesic activity in CCI induced thermal hyperalgesia in Sprague-Dawley rat assessed as reduction in thermal hyperalgesia by measuring inhibition of pain response at 3 mg/kg, po measured after 5.5 hrs by Hargreaves test relative to control; format: functional; design: scale not given: the % may be the effect or the level left
[32] = target: Solute carrier organic anion transporter family member 1B3 (Homo sapiens, UniProt Q9NPD5); experiment: Inhibition of OATP1B3 (unknown origin)
Solute carrier organic anion transporter family member 1B3, sequence (Q9NPD5 whole entry): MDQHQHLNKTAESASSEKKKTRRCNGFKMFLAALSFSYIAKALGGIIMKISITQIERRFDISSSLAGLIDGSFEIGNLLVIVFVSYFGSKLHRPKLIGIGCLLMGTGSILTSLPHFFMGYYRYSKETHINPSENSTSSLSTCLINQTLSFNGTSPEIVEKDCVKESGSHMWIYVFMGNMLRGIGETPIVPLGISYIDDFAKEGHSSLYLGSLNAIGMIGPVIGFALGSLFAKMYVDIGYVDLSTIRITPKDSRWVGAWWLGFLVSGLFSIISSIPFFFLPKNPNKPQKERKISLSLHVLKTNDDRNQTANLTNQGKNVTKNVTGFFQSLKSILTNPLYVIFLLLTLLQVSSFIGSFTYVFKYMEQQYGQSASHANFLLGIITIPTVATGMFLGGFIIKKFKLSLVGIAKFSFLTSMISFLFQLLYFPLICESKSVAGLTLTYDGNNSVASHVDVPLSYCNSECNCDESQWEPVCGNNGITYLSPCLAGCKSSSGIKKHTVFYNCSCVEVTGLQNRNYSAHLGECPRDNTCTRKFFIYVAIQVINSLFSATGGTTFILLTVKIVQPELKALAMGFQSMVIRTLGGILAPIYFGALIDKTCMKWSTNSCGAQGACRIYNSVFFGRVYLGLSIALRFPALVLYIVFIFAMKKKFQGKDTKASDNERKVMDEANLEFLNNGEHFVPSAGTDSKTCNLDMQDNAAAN

[33] = target: Solute carrier family 22 member 6 (Homo sapiens, UniProt Q4U2R8); experiment: Inhibition of OAT1 (unknown origin)
Solute carrier family 22 member 6, sequence (Q4U2R8 whole entry): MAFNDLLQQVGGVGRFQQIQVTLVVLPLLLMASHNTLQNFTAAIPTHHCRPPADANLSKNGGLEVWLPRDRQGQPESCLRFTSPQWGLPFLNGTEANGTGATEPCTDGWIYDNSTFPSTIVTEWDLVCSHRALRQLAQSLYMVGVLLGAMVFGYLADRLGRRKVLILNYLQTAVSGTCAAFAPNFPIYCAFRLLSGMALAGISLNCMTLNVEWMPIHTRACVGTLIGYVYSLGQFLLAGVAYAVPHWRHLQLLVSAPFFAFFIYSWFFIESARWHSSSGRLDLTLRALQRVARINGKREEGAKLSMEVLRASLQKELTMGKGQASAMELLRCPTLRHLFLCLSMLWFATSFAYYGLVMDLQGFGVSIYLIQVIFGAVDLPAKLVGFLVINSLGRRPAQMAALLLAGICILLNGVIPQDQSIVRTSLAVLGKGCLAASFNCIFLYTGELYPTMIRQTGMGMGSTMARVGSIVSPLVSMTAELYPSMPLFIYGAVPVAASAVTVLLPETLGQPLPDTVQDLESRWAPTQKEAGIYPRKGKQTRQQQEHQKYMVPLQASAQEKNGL

[34] = target: Organic anion transporter 3 (Homo sapiens, UniProt Q8TCC7); experiment: Inhibition of OAT3 (unknown origin)
[35] = Protein binding in dog plasma assessed as unbound fraction measured after 3 hrs by LC/MS/MS analysis; format: ADME, cell-free, Canis lupus familiaris
[36] = target: Citron Rho-interacting kinase (Homo sapiens, UniProt O14578); experiment: Inhibition of CRIK (unknown origin)
[37] = target: TRAF2 and NCK-interacting protein kinase (Homo sapiens, UniProt Q9UKE5); experiment: Inhibition of TNIK (unknown origin)
[38] = target: ATP-binding cassette sub-family C member 2 (Homo sapiens, UniProt Q92887); experiment: Inhibition of MRP2 (unknown origin)
ATP-binding cassette sub-family C member 2, sequence (Q92887 whole entry): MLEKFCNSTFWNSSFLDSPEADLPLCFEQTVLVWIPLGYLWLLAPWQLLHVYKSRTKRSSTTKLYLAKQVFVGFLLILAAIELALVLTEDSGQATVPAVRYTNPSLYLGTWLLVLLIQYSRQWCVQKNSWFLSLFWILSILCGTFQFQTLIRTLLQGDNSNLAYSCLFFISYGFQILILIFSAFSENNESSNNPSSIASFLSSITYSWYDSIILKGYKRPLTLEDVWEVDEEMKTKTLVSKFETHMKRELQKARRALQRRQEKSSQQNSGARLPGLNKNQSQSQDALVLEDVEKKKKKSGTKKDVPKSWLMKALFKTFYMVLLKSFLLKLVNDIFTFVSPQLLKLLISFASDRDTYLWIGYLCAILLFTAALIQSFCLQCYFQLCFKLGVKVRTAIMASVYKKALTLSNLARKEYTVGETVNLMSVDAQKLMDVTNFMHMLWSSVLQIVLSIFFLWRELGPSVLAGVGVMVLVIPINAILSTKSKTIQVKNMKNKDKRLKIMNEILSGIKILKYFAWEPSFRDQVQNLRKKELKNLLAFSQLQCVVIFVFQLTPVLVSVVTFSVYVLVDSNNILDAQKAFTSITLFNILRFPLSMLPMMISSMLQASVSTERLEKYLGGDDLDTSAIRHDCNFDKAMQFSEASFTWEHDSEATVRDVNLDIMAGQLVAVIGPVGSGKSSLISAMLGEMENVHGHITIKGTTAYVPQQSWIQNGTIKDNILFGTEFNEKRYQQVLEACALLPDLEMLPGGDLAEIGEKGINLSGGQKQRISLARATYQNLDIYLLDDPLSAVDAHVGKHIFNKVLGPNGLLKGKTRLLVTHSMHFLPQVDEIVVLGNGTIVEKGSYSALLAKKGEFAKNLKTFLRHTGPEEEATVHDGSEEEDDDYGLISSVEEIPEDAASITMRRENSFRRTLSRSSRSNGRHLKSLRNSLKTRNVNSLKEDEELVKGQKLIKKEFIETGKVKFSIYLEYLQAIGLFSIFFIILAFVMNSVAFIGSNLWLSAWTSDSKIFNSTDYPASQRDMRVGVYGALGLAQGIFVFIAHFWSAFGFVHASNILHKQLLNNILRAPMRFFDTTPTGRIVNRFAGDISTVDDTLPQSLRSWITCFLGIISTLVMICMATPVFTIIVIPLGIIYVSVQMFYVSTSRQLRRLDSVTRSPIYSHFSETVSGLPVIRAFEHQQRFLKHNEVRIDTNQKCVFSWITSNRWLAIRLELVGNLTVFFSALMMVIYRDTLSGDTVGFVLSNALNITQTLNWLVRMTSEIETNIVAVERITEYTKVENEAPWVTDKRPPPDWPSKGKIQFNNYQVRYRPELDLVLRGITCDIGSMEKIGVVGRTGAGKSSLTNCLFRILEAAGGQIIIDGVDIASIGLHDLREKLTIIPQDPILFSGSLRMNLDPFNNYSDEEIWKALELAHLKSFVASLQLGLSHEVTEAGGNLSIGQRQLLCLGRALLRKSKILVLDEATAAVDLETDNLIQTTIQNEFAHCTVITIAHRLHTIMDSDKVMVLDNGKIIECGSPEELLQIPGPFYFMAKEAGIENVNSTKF

[39] = In vivo protein occupancy at AAK1 in rat at 3 mg/kg, po measured after 4 hrs; format: functional
[40] = Inhibition of cardiac sodium channel (unknown origin); design: species or system Homo sapiens
[41] = Ratio of drug concentration in spinal cord to plasma in CCI induced thermal hyperalgesia in Sprague-Dawley rat at 1 mg/kg, po measured at 5.5 hrs post dose; format: ADME, organism-based

solubility at 24 h [2]: > 1 mg/mL | solubility at 24 h [5]: 0.288 mg/mL (≈ 773 µM) | solubility at 24 h [6]: > 1 mg/mL | remaining at 22 h [7]: 100% | solubility at 24 h [10]: > 1 mg/mL | solubility at 24 h [11]: > 1 mg/mL | solubility at 24 h [12]: > 1 mg/mL | solubility at 24 h [13]: > 1 mg/mL | remaining at 22 h [15]: 100% | solubility at 24 h [16]: > 1 mg/mL
Structure (SMILES): COC(=O)Nc1cc(-c2ccc(OC[C@@](C)(N)CC(C)C)c(C)n2)ccn1
pIC50 [1]: 5.85 | Activity [3]: Non-Toxic | Activity [4]: Non-Toxic | Activity (Rattus norvegicus [8]): 80% | pIC50 [9]: 6.27 | Activity (Rattus norvegicus [14]): 40%

pIC50 [18]: 5.89 | pIC50 [19]: 9.05 | pIC50 [20]: 5.74
Structure (SMILES): COC(=O)Nc1cc(-c2cnc(OC[C@@](C)(N)CC(C)C)c(C)c2)ccn1
pIC50 [17]: 5.66

pIC50 [21]: < 4.30 | Tmax [22]: 3.7 h | Kp at 4 h [23]: 17.6 | concentration at 5.5 h [24]: 0.378 µM | pIC50 [25]: < 4.30 | concentration at 5.5 h [26]: 0.029 µM | fraction unbound at 3 h [27]: 0.075 | concentration at 4 h [28]: 0.825 µM | fraction unbound at 4 h, 1 µM [29]: 0.018 | concentration at 4 h [30]: 0.047 µM | pIC50 [32]: < 4.30 | pIC50 [33]: < 4.30 | pIC50 [34]: < 4.30 | fraction unbound at 3 h [35]: 0.08 | pIC50 [36]: 5.92 | pIC50 [37]: 5.70 | pIC50 [38]: < 4.30 | pIC50 [40]: 5.27 | Kp at 5.5 h [41]: 18
Structure (SMILES): CC(C)C[C@](C)(N)COc1cnc(-c2ccnc(C(F)F)c2)cc1C(F)F
pIC50 (Bile salt export pump): < 4.30 | Activity (Rattus norvegicus [31]): 100% | Activity [39]: 95%
